From US20240309060A1, “POLYPEPTIDE BAX/NPM INHIBITORS” (TRUSTEES OF BOSTON UNIVERSITY, priority 2023, published 2024)
“Also recorded” adds a separate entry of the source. Square brackets hold non-standard residues; d marks the D form. βAla = NCCC(=O)O

What was measured:
human NPM1 = human NPM1 (Homo sapiens, UniProt P06748); assay: Surface plasmon resonance (SPR) binding of peptides to human NPM1; details: human NPM1, FIG. 14
Source text: FIG. 14 depicts a table of the association rate, dissociation rate and the calculated equilibrium dissociation constant for 10 representative therapeutic peptides as measured by Surface Plasmon Resonance (SPR). Mean rates are derived from at least three different peptide concentrations at levels below saturation with human NPM1. Cell survival data are normalized to the negative control (a GFP fragment of similar size to the therapeutic peptides) and represent the mean of at least 3 separate experiments.
FIG. 15 depicts an on-off rate map. A graph of the off-rate (x-axis) and on-rate (y-axis) of 10 representative peptides from different sets of modified peptides. Diagonal dash-lines represent the equilibrium dissociation constant (KD) estimates the NPM1 binding affinity for each peptide based on the distance to the lines.
The 3D helical wheel projection scan predicted that 5 of 6 peptide residues (except for L185) with intermediate effects on post-ischemic cell survival cluster in a single surface domain (FIGS. 6 and 7). These surface residues are likely regulating the binding affinity Kd) between the therapeutic peptide and NPM1, the human target protein. Since binding affinity (Kd) between the peptide drug and NPMB1 partly predicts its efficacy, a high throughput, quantitative surface plasmon resonance (SPR) assay was developed.
SPR was measured for 10 novel polypeptides with select single or double mutations. Both the measured peptide “on” and “off” rates for binding human NPM1 markedly differed (FIG. 15). […] For most modified peptides, greater protection against ischemic stress positively correlated with a low Kd. […] Overall, SPR data combined with cell survival data adequately informs the selection of therapeutic peptides based on the quantifiable effects of R group modifications on these parameters. The combination of SPR binding affinity and cell survival data in vitro effectively rank orders therapeutic peptides for in vivo testing in animals.

[1] = test system: primary murine proximal tubule epithelial cells (PTEC); assay: MTT cell survival assay of kidney cells after ischemic stress in vitro induced by metabolic inhibitors; assay type: cell-based; details: for Effect of the residue (single alanine substitution) on cytoprotection / cell survival after ischemic stress: alanine scanning of NPMB1, PTEC, FIG. 2; for Degree of cytoprotection during ischemic stress: alanine scan and pro-helical mutations; for Protection of primary kidney proximal tubule cells from ischemic stress (relative kidney cell survival rate): 70 min ischemic stress, metabolic inhibitors, vs non-specific GFP fragment, normalized to baseline, FIG. 4; for Viability of primary murine kidney cells after ischemic stress: ischemic stress induced by metabolic inhibitors, FIGS. 5, 7
Method: FIG. 2 depicts an NPMB1 Alanine Scan. Relative kidney cell survival rate after 70 min ischemic stress in vitro induced by metabolic inhibitors in the presence of NPMB1 (control) vs. 19 different NPMBx polypeptides with single alanine substitutions (2 additional NPMB1 alanine residues were not substituted). Residue numbers (x axis) reflect Bax sequence that binds human NPM1; Survival data are normalized to NPMB1; post-ischemic kidney cell survival is shown in tertiles: (left-most group: 5-40% survival; middle-group: 55-70% and third group: 80-95%); n=3 separate experiments.
Relative kidney cell survival rate after 70 min ischemic stress in vitro induced by transient exposure to metabolic inhibitors in the presence of NPMB polypeptides (Agents 2, 5, 7, 14 that reflect alanine scan polypeptides A173, A187, A179, A176) vs. a non—specific polypeptide (GFP fragment). Survival data normalized to baseline (no stress); *P<0.01vs. baseline; t P<0.05 vs. stress; data represent 3 separate experiments; error bars represent mean+SD.
FIGS. 13A-13B depict the cytoprotective effects of select therapeutic peptides during ischemic stress in vitro. Primary murine proximal tubule epithelial cells (PTEC) were transiently exposed to metabolic inhibitors for 60 min and allowed to recover for 6 hr. to simulate ischemia in vivo; MTT assay estimated cell survival. “Control” (open bars); is a GFP fragment of similar size to the therapeutic peptides was used a negative control; NPMB1 (prototype) serves as a positive control. […] All peptides contained the nuclear localizing sequence (NLS) to enhance peptide delivery to the kidney, a beta linker and both carboxy-and amino terminal modifications to reduce susceptibility to protease digestion; data are mean+standard error; n=3 separate experiments. Figure discloses SEQ ID NOS 139, 134-135, 128, 127, and 138, respectively, in order of appearance.
Structure activity relationships of NPMB1 derivatives were determined through alanine scanning In these studies, 19 polypeptides were produced using methods shown in FIGS. 8-11 and their effect of kidney cell survival after ischemic stress was characterized using the MTT cell survival assay. Based on determination of relative kidney cell survival rate, polypeptides were grouped according to activity as shown in FIG. 2 (orange: 5-40% survival; blue 55-70% survival, or green 80-95% survival).

human NPM1, sequence (P06748 whole entry, the tested form may be a part): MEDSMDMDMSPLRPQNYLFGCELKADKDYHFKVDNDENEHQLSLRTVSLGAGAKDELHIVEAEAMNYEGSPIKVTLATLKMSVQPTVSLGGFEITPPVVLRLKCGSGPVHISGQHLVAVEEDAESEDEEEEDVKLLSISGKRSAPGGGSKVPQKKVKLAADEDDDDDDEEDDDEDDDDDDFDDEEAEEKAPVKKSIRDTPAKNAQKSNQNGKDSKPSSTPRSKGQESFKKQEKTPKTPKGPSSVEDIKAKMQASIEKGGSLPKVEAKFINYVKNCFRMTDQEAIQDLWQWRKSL

Substance	Effect of the residue (single alanine substitution) on cytoprotection / cell survival after ischemic stress [1]	further results
Ac-KKRRRKKRRRKKRRRK-Bala-TVTIFVAGVLTASLTIWKKMG-OH (Ac-KKRRRKKRRRKKRRRK[βAla]TVTIFVAGVLTASLTIWKKMG-OH; SMILES CC[C@H](C)[C@H](NC(=O)[C@@H](NC(=O)[C@H](CC(C)C)NC(=O)[C@H](CO)NC(=O)[C@H](C)NC(=O)[C@@H](NC(=O)[C@H](CC(C)C)NC(=O)[C@@H](NC(=O)CNC(=O)[C@H](C)NC(=O)[C@@H](NC(=O)[C@H](Cc1ccccc1)NC(=O)[C@@H](NC(=O)[C@@H](NC(=O)[C@@H](NC(=O)[C@@H](NC(=O)CCNC(=O)[C@H](CCCCN)NC(=O)[C@H](CCCNC(=N)N)NC(=O)[C@H](CCCNC(=N)N)NC(=O)[C@H](CCCNC(=N)N)NC(=O)[C@H](CCCCN)NC(=O)[C@H](CCCCN)NC(=O)[C@H](CCCNC(=N)N)NC(=O)[C@H](CCCNC(=N)N)NC(=O)[C@H](CCCNC(=N)N)NC(=O)[C@H](CCCCN)NC(=O)[C@H](CCCCN)NC(=O)[C@H](CCCNC(=N)N)NC(=O)[C@H](CCCNC(=N)N)NC(=O)[C@H](CCCNC(=N)N)NC(=O)[C@H](CCCCN)NC(=O)[C@H](CCCCN)NC(C)=O)[C@@H](C)O)C(C)C)[C@@H](C)O)[C@@H](C)CC)C(C)C)C(C)C)[C@@H](C)O)[C@@H](C)O)C(=O)N[C@@H](Cc1c[nH]c2ccccc12)C(=O)N[C@@H](CCCCN)C(=O)N[C@@H](CCCCN)C(=O)N[C@@H](CCSC)C(=O)NCC(=O)O) [NPMB1-I-010]	–	Kd / NPM1 binding affinity in words (human NPM1): relatively low Kd
Ac-PKKKRKV-Bala-AVTIFVAGVLTASLTIWKKMG-OMe [NPMB1-III-001]	moderate cytoprotective effects	–
Ac-PKKKRKV-Bala-QVTIAVAGVLTASLTIWKKMG-OMe [NPMB1-X-009]	–	Cytoprotective effects during ischemic stress in vitro ([1]; peptides 100 nM, metabolic inhibitors 60 min, recovery 6 hr, vs GFP negative control, FIG. 13): most robust protection
Ac-PKKKRKV-Bala-QVTIFVAGVLTASLTIWKKMG-OMe [NPMB1-V-004]	–	Degree of cytoprotection during ischemic stress [1]: highly effective
Ac-PKKKRKV-Bala-TATIFVAGVLTASLTIWKKMG-OMe [NPMB1-III-002]	minimal effect on cell survival	Protection of primary kidney proximal tubule cells from ischemic stress (relative kidney cell survival rate) [1]: protect; Degree of cytoprotection during ischemic stress [1]: substantial protection; Viability of primary murine kidney cells after ischemic stress ([1]; listed as Agent 2): substantially improve the viability; also recorded: protect against ischemic injury
Ac-PKKKRKV-Bala-TVAIFVAGVLTASLTIWKKMG-OMe [NPMB1-III-003]	critical for cytoprotection	–
Ac-PKKKRKV-Bala-TVTAFVAGVLTASLTIWKKMG-OMe [NPMB1-III-004]	moderate cytoprotective effects	–
Ac-PKKKRKV-Bala-TVTIAVAAVLTASLTIWKKMG-OMe [NPMB1-X-008]	–	Kd / NPM1 binding affinity in words (human NPM1): relatively low Kd values
Ac-PKKKRKV-Bala-TVTIAVAGVLTASLTIWKKMG-OMe [NPMB1-III-005]	minimal effect on cell survival	Protection of primary kidney proximal tubule cells from ischemic stress (relative kidney cell survival rate) [1]: protect; Degree of cytoprotection during ischemic stress [1]: substantial protection; Viability of primary murine kidney cells after ischemic stress ([1]; listed as Agent 5): substantially improve the viability; also recorded: protect against ischemic injury
Ac-PKKKRKV-Bala-TVTIFAAGVLTASLTIWKKMG-OMe [NPMB1-III-006]	critical for cytoprotection	–
Ac-PKKKRKV-Bala-TVTIFVAAVLTASLTIWKKMG-OMe [NPMB1-III-007]	minimal effect on cell survival	Protection of primary kidney proximal tubule cells from ischemic stress (relative kidney cell survival rate) [1]: protect; Degree of cytoprotection during ischemic stress [1]: substantial protection; Viability of primary murine kidney cells after ischemic stress ([1]; listed as Agent 7): substantially improve the viability; also recorded: protect against ischemic injury
Ac-PKKKRKV-Bala-TVTIFVAGALTASLTIWKKMG-OMe [NPMB1-III-008]	moderate cytoprotective effects	–
Ac-PKKKRKV-Bala-TVTIFVAGVATASLTIWKKMG-OMe [NPMB1-III-009]	critical for cytoprotection	–
Ac-PKKKRKV-Bala-TVTIFVAGVLAASLTIWKKMG-OMe [NPMB1-III-010]	critical for cytoprotection	–
Ac-PKKKRKV-Bala-TVTIFVAGVLTAALTIWKKMG-OMe [NPMB1-III-011]	critical for cytoprotection	–
Ac-PKKKRKV-Bala-TVTIFVAGVLTASATIWKKMG-OMe [NPMB1-III-012]	moderate cytoprotective effects	Viability of primary murine kidney cells after ischemic stress ([1]; listed as Agent 12): substantially improve the viability; also recorded: protect against ischemic injury
Ac-PKKKRKV-Bala-TVTIFVAGVLTASLAIWKKMG-OMe [NPMB1-III-013]	moderate cytoprotective effects	–
Ac-PKKKRKV-Bala-TVTIFVAGVLTASLQIWKKMG-OMe [NPMB1-V-003]	–	Kd / NPM1 binding affinity in words (human NPM1): low Kd values (except NPMB1-V-003
Ac-PKKKRKV-Bala-TVTIFVAGVLTASLTAWKKMG-OMe [NPMB1-III-014]	minimal effect on cell survival	Protection of primary kidney proximal tubule cells from ischemic stress (relative kidney cell survival rate) [1]: protect; Degree of cytoprotection during ischemic stress [1]: substantial protection
Ac-PKKKRKV-Bala-TVTIFVAGVLTASLTIAKKMG-OMe [NPMB1-III-015]	critical for cytoprotection	–
Ac-PKKKRKV-Bala-TVTIFVAGVLTASLTIWAKMG-OMe [NPMB1-III-016]	critical for cytoprotection	–
Ac-PKKKRKV-Bala-TVTIFVAGVLTASLTIWKAMG-OMe [NPMB1-III-017]	critical for cytoprotection	–
Ac-PKKKRKV-Bala-TVTIFVAGVLTASLTIWKKAG-OMe [NPMB1-III-018]	moderate cytoprotective effects	–
Ac-PKKKRKV-Bala-TVTIFVAGVLTASLTIWKKMA-OMe [NPMB1-III-019]	critical for cytoprotection	–
Ac-PKKKRKV-Bala-TVTLFVAGVLTASLTAWKKMG-OMe [NPMB1-X-002]	–	Kd / NPM1 binding affinity in words (human NPM1): relatively low Kd values
